Consider 6 compounds from ChEMBL document CHEMBL1201862, “PubChem BioAssay data set” (2004).

What is called EC50 is the concentration needed to bring the measured effect to its halfway point. A word on the IC50: it is the midpoint of a concentration-inhibition curve. One may read the AC50 as the midpoint of the concentration-response curve, whichever way the signal moves. For orientation: CC50 means the concentration that lowers cell viability or growth by half.

Molecules are shown by their SMILES. Active and inactive are the calls of the source. Rule as the data show it, for most assays here: actives have a measured EC50 and inactives only a lower limit. A value given as a limit tells only on which side of the number the result lay.

The subject of one test is Streptococcus. In words: GAS UMAA2166 growth inhibition – luminescence, BacTiterGlo, counter-screen for streptokinase expression inhibitor project, dose response (AID 1915).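 Also: potency for reduction of bacterial viability or growth.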 Format: functional, organism-based. For orientation: Counterscreens check selectivity or assay interference.
Test [1] deals with ATP-dependent molecular chaperone HSP82 (Candida albicans (strain WO-1) (Yeast), UniProt C4YTQ8). In words: steroid-induced GRE reporter decrease in yeast – S. cerevisiae, luminescence, Hsp90 inhibitor project, dose response (AID 2400).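 Also: beta-galactosidase luminescence from glucocorticoid response element reporter as proxy for Hsp90 function; inhibitor potency where signal loss means Hsp90 inhibition.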 The class given is functional, cell-based.
A short description of test [2]: fluconazole-exposed Candida albicans growth modulators – fluorescence, retest, confirmation (AID 2467). Format: functional, cell-based.
A short description of test [3]: NIH-3T3 fibroblast cytotoxicity, dose response, cytotoxicity control, cell-based, fluorescence, Alamar Blue, secondary assay (AID 2327).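 Also: NIH-3T3 mouse fibroblasts cultured with fluconazole at 8 µg/mL.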 The class given is functional.
The target of test [4] is Serine/threonine-protein phosphatase (Candida dubliniensis (strain CD36 / CBS 7987 / NCPF 3949 / NRRLY-17841) (Yeast), UniProt B9W6M3). In words: blockers of CaCl2-induced CDRE-lacZ signaling – S. cerevisiae, luminescence, secondary, dose response (AID 2388).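 Also: yeast reporter cells carrying a calcineurin-responsive lacZ construct stimulated with calcium chloride; luminescent beta-galactosidase reporter signal in whole cells rather than isolated phosphatase activity; potency for inhibition where a drop in reporter signal means calcineurin blockade.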 Format: functional, cell-based.
The subject of test [5] is Streptococcus sp. 'group A'. Kind of test: Streptococcus pyogenes SK(-)GAS viability under kanamycin – luminescence, BacTiterGlo, confirmation, counter-screen for streptokinase expression inhibitor project, dose response (AID 1900). Format: functional, organism-based.
The target of test [6] is T1, Calpain-2 catalytic subunit (Sus scrofa, UniProt P43367).
T1 sequence (P43367 whole entry): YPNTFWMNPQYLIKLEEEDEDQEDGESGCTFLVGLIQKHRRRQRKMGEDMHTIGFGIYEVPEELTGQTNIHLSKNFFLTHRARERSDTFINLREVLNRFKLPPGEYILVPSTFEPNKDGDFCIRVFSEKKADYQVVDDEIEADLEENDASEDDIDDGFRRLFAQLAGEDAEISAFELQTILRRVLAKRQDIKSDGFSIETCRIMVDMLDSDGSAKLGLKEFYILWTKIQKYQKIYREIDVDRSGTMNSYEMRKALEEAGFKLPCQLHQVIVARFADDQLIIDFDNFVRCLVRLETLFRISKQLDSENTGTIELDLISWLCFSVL
In words: m-calpain protease blockers, concentration series – biochemical, fluorogenic peptide substrate, dose response (AID 1420). The class given is functional.

Test [7] addresses Heat shock protein HSP 90-alpha (Homo sapiens, UniProt P07900). Format: functional, organism-based.
Test [8] in a line: Luminescence Cell-Based Dose Confirmation HTS to Identify Activators of 5'UTR Stem-Loop Driven Alpha-Synuclein mRNA Translation in H4 Neuroglioblastoma Cells. [Related pubchem assays: 1829 (Project Summary), 1814 (Primary HTS)]. Format: functional.
The subject of a further test is H4. Kind of test: Luminescence Cell-Based Dose Response HTS to Identify Activators of 5'UTR Stem-Loop Driven Prion Protein mRNA Translation in H4 Neuroglioblastoma Cells. [Related pubchem assays: 1829 (Project Summary), 1814 (Primary HTS)]. The class given is functional. To be noted: Homo sapiens.
A short description of test [9]: Luminescence Cell-Based Dose Response to Identify Activators of 5'UTR Stem-Loop Driven Prion Protein mRNA Translation in H4-C Neuroglioblastoma Cells. [Related pubchem assays: 1829 (Project Summary), 1814 (Primary HTS)]. The class given is functional.
The target of a further test is Genome polyprotein (dengue virus type 2, UniProt P29990). In words: flavivirus cap methylation enzyme inhibition – biochemical, confirmation dose response, primary screen (AID 588689). Format: functional.
A short description of test [10]: Luminescence Cell-Based Dose Response HTS to Identify Activators of Luciferase Translation or Activity in H4 […] Cells. [Related pubchem assays: 1829 (Project Summary), 1814 (Primary HTS)]. Format: functional.
In a further test the test system is Vero. In words: viability of Vero cells under compound – cytotoxicity control for flavivirus capping enzyme inhibitors (AID 588742). The class given is functional. To be noted: Chlorocebus sabaeus.
Test [11] in a line: Luminescence Cell-Based Dose Response to Identify Activators of Luciferase Translation or Activity in H4-C Neuroglioblastoma Cells. [Related pubchem assays: 1829 (Project Summary), 1814 (Primary HTS)]. The class given is functional.
Test [12] in a line: Luminescence Cell-Based Dose Confirmation to Identify Activators of 5'UTR Stem-Loop Driven Alpha-Synuclein mRNA Translation in H4 Neuroglioblastoma Cells. [Related pubchem assays: 1829 (Project Summary), 1814 (Primary HTS)]. The class given is functional.
For another test, the target named is Hexokinase-1 (Homo sapiens, UniProt P19367). Kind of test: SAR analysis of small molecule inhibitors of hexokinase domain containing I (HKDC1) in the hexokinase 1 selectivity assay. [Related pubchem assays (depositor defined):AID493160, AID493190]. Format: functional.
The target in another test is T2, Hexokinase HKDC1 (Homo sapiens, UniProt Q2TB90).
T2 sequence (Q2TB90 whole entry): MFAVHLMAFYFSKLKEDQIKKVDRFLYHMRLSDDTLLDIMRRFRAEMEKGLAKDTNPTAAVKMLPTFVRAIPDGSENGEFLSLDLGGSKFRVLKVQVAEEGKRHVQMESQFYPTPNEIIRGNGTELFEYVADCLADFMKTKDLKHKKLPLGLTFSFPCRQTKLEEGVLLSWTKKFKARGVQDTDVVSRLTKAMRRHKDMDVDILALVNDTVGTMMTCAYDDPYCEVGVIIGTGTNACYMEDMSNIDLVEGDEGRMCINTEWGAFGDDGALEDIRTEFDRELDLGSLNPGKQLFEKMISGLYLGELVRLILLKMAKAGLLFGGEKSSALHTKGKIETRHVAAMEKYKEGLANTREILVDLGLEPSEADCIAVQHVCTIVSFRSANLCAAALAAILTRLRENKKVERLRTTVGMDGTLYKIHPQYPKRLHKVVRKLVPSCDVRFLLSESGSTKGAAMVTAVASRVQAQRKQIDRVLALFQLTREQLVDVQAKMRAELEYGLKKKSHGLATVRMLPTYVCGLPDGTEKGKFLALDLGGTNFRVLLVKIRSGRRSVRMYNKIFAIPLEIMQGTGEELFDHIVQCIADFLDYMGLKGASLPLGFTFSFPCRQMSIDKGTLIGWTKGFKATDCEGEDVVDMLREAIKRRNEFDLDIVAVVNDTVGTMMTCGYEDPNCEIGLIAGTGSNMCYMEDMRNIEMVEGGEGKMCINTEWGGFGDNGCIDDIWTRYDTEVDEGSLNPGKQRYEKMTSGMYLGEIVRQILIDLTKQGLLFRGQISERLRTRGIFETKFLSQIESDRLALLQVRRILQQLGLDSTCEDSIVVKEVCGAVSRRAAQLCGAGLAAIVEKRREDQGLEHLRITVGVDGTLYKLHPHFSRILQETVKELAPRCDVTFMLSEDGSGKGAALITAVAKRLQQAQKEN
In words: SAR analysis of small molecule inhibitors of hexokinase domain containing I (HKDC1). [Related pubchem assays (depositor defined):AID493160, AID493190]. The class given is functional.

Chain of ATP-dependent molecular chaperone HSP82 (C4YTQ8 whole entry): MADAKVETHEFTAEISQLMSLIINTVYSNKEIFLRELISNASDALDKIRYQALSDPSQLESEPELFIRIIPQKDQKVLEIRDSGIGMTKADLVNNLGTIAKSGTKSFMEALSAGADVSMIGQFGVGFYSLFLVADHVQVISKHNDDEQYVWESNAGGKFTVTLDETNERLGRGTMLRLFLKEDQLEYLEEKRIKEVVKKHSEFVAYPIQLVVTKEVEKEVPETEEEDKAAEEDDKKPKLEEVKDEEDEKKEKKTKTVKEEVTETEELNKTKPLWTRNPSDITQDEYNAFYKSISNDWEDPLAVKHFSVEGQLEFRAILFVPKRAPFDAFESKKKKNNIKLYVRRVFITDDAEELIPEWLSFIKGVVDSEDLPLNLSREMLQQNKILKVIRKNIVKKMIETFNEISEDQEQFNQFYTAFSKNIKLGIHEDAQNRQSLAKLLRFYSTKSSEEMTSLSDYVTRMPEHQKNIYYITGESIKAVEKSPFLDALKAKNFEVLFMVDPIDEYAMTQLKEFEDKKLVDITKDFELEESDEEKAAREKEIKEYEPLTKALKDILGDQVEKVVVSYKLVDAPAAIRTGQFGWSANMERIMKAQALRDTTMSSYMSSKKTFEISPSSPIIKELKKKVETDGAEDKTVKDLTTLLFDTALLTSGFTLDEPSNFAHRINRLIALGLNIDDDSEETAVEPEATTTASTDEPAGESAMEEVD
Chain of Genome polyprotein (P29990 2492-3391 limits assumed): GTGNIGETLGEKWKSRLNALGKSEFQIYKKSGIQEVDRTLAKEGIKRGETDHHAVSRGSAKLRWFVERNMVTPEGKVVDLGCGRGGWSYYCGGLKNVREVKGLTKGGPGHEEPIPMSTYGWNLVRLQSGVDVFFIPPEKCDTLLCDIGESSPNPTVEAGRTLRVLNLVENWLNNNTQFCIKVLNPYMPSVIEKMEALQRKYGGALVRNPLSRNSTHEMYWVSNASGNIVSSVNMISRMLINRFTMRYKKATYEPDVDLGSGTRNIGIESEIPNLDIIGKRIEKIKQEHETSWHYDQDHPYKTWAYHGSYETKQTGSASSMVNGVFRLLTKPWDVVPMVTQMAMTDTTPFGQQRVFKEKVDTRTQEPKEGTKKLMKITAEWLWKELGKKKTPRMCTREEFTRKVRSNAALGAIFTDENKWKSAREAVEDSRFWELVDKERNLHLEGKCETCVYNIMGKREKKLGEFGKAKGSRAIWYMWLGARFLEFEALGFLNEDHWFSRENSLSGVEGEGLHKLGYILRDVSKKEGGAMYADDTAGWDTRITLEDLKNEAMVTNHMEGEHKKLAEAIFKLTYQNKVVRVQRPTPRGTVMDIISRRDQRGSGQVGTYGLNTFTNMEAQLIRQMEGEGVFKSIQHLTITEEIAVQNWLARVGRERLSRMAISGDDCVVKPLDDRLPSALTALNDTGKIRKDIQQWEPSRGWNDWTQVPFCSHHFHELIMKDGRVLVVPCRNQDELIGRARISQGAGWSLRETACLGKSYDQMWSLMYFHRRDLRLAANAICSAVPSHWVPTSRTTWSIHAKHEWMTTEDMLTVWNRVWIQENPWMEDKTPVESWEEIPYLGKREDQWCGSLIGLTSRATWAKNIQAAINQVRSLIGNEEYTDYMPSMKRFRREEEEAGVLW
Chain of Hexokinase-1 (P19367 whole entry, the tested form may be a part): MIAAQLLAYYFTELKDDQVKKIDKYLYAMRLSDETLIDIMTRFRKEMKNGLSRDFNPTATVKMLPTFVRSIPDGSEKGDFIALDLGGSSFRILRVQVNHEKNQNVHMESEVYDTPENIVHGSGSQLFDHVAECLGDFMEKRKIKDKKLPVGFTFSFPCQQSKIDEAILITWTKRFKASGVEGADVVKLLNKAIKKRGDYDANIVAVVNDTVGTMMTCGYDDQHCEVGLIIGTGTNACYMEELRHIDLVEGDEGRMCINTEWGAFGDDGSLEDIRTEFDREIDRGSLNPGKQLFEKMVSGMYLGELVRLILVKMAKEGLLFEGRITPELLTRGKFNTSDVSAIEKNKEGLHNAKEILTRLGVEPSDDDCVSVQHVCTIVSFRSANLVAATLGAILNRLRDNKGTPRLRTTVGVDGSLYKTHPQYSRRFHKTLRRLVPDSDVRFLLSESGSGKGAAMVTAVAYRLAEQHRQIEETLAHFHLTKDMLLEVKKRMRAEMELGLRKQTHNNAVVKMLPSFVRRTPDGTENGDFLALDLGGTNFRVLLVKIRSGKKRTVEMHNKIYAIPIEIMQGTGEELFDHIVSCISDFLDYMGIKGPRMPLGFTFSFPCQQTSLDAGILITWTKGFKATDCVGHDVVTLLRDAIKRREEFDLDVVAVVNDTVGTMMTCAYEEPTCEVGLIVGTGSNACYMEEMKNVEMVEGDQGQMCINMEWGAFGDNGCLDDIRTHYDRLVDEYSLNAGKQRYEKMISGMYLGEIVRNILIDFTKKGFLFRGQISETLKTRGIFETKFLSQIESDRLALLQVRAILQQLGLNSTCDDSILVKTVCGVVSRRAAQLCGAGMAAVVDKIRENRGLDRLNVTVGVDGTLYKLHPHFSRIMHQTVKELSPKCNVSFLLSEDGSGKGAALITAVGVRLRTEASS
Chain of Serine/threonine-protein phosphatase (B9W6M3 whole entry): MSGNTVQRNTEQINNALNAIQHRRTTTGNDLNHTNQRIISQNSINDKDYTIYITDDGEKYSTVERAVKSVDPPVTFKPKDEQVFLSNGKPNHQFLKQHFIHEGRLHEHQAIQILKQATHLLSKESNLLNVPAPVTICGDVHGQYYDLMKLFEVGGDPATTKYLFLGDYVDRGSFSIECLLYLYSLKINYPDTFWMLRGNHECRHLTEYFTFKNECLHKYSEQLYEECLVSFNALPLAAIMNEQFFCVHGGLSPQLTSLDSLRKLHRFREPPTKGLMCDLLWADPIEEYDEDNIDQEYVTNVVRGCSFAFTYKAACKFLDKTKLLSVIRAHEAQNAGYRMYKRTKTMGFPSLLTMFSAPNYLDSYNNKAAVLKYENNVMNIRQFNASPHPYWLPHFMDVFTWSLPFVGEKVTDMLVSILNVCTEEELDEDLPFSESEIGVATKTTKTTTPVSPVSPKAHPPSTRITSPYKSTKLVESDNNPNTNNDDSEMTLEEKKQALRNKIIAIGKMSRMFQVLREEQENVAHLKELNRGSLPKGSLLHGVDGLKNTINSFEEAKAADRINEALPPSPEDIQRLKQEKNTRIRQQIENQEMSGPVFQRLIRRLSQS

`O=[N+]([O-])c1cc(Cl)c(O)c2ncccc12`: the concentration for a half-maximal effect (EC50) is 5.77 µM (active) in the test with Streptococcus; 1.48 µM (active) in test [1]; 0.055 µM (active) in test [2]; 15.5 µM (active) in test [3]; > 180 µM (inactive) in test [4]; 1.33 µM (active) in [5]. The half-maximal inhibitory concentration (IC50) in test [6] is > 50 µM (not active). Besides, in [7], the AC50 is 1.86 µM (active).

As to `Cc1ccc(-c2nn(-c3ccccc3)cc2C=C2C(=O)CC(C)(C)CC2=O)cc1`, the concentration giving a half-maximal response (EC50) is > 120 µM (not active) in test [8]; > 120 µM (not active) in the test on H4; > 12 µM (not active) in [9]; 0.454 µM (active) in test [10]; 1.35 µM (active) in test [11]; 0.555 µM (active) in test [12]. For the same compound, the IC50 on Genome polyprotein is 44.8 µM (active). For the same compound, the half-maximal cytotoxic concentration (CC50) in the test on Vero is 19.1 µM (active).

`Clc1ccc2c(c1)C(c1cccs1)=NNC(c1cccnc1)=N2`: the EC50 is > 150 µM (inactive) in test [1], 0.101 µM (active) in test [2], > 150 µM (inactive) in test [3] and > 180 µM (inactive) in [4].

In the case of `Cc1cc2nnc(SCC(=O)Nc3ccccc3)n2c2ccccc12`, the IC50 at Hexokinase-1 and on Hexokinase HKDC1 was > 80 µM (inactive) in each case.

For the compound `O=C(Nc1nnc(SCc2ccccc2)s1)c1ccc2[nH]cnc2c1`, the IC50 at Hexokinase-1 and at Hexokinase HKDC1 was > 80 µM (inactive) each time.

`CSc1ccc(-c2sc(Nc3cccc4ccccc34)n[n+]2-c2ccccc2)cc1`: the IC50 at Genome polyprotein is 44.5 µM (active). Moreover, the CC50 in the test on Vero was > 40 µM (active).
